Measurements taken from ChEMBL document CHEMBL5442219.

Experiments:
Conditions in all cases: Compound concentration 10 µM
[1] = target: Muscarinic acetylcholine receptor M3 (Homo sapiens) (UniProt P20309)
Description: PDSP Primary Binding target: CHRM3 - Compounds are tested at 10 uM concentration, plate are incubated at room temperature in the dark for 90 minutes. Reaction are stopped by vacuum filtration onto 0.3% polyethyleneimine soaked filter mats using Filtermate harvester. Scintilation cocktail is then melted onto microwave-dried filters on a hot plate and the radio activity is counted in Microbia counter.

[2] = target: T1, Muscarinic acetylcholine receptor M1 (Homo sapiens) (UniProt P11229)
T1 sequence (whole entry): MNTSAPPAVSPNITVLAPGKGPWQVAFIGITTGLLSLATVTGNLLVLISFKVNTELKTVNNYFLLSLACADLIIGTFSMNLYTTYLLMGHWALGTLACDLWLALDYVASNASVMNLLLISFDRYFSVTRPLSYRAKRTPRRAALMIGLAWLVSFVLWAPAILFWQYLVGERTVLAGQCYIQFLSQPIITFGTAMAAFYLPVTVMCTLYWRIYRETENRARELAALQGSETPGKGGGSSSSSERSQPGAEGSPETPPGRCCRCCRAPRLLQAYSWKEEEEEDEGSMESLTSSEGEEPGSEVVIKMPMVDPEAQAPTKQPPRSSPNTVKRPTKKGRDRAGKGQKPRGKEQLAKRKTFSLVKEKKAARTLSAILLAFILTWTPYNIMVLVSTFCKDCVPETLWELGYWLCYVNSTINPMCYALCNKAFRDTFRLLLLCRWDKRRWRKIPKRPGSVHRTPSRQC
Description: PDSP Primary Binding target: CHRM1 - Compounds are tested at 10 uM concentration, plate are incubated at room temperature in the dark for 90 minutes. Reaction are stopped by vacuum filtration onto 0.3% polyethyleneimine soaked filter mats using Filtermate harvester. Scintilation cocktail is then melted onto microwave-dried filters on a hot plate and the radio activity is counted in Microbia counter.

[3] = target: 5-hydroxytryptamine receptor 2B (Homo sapiens) (UniProt P41595)
Description: PDSP Primary Binding target: HTR2B - Compounds are tested at 10 uM concentration, plate are incubated at room temperature in the dark for 90 minutes. Reaction are stopped by vacuum filtration onto 0.3% polyethyleneimine soaked filter mats using Filtermate harvester. Scintilation cocktail is then melted onto microwave-dried filters on a hot plate and the radio activity is counted in Microbia counter.

[4] = target: T2, Alpha-2C adrenergic receptor (Homo sapiens) (UniProt P18825)
T2 sequence (whole entry): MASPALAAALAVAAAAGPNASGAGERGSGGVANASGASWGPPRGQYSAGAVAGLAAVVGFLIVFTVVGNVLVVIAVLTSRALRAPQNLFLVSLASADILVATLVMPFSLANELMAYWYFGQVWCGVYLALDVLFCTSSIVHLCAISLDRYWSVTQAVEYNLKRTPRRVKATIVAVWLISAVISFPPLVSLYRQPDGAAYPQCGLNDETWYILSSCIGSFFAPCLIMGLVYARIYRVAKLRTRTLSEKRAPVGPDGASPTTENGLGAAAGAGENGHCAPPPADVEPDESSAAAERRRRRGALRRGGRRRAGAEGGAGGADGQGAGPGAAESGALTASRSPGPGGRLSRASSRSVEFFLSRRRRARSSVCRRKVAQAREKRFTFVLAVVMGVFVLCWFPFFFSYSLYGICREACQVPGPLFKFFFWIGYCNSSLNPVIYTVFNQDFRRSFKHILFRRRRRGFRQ
Description: PDSP Primary Binding target: ADRA2C - Compounds are tested at 10 uM concentration, plate are incubated at room temperature in the dark for 90 minutes. Reaction are stopped by vacuum filtration onto 0.3% polyethyleneimine soaked filter mats using Filtermate harvester. Scintilation cocktail is then melted onto microwave-dried filters on a hot plate and the radio activity is counted in Microbia counter.

[5] = target: 5-hydroxytryptamine receptor 1B (Homo sapiens) (UniProt P28222)
Description: PDSP Primary Binding target: HTR1B - Compounds are tested at 10 uM concentration, plate are incubated at room temperature in the dark for 90 minutes. Reaction are stopped by vacuum filtration onto 0.3% polyethyleneimine soaked filter mats using Filtermate harvester. Scintilation cocktail is then melted onto microwave-dried filters on a hot plate and the radio activity is counted in Microbia counter.

[6] = target: T3, Muscarinic acetylcholine receptor M2 (Homo sapiens) (UniProt P08172)
T3 sequence (whole entry): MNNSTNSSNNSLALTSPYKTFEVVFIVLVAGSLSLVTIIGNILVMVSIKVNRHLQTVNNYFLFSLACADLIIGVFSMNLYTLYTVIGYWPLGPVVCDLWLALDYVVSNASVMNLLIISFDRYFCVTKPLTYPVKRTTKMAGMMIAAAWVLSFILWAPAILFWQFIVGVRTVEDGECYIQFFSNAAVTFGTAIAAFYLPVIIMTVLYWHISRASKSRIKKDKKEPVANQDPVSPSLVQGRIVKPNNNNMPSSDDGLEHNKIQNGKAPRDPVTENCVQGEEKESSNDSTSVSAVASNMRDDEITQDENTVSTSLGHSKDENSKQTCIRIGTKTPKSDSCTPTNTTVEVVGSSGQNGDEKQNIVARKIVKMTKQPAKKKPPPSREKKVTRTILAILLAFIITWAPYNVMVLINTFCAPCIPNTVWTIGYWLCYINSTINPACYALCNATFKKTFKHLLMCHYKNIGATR
Description: PDSP Primary Binding target: CHRM2 - Compounds are tested at 10 uM concentration, plate are incubated at room temperature in the dark for 90 minutes. Reaction are stopped by vacuum filtration onto 0.3% polyethyleneimine soaked filter mats using Filtermate harvester. Scintilation cocktail is then melted onto microwave-dried filters on a hot plate and the radio activity is counted in Microbia counter.

[7] = target: Sodium-dependent serotonin transporter (Homo sapiens) (UniProt P31645)
Description: PDSP Primary Binding target: SLC6A4 - Compounds are tested at 10 uM concentration, plate are incubated at room temperature in the dark for 90 minutes. Reaction are stopped by vacuum filtration onto 0.3% polyethyleneimine soaked filter mats using Filtermate harvester. Scintilation cocktail is then melted onto microwave-dried filters on a hot plate and the radio activity is counted in Microbia counter.

[8] = target: T4, Alpha-2A adrenergic receptor (Homo sapiens) (UniProt P08913)
T4 sequence (whole entry): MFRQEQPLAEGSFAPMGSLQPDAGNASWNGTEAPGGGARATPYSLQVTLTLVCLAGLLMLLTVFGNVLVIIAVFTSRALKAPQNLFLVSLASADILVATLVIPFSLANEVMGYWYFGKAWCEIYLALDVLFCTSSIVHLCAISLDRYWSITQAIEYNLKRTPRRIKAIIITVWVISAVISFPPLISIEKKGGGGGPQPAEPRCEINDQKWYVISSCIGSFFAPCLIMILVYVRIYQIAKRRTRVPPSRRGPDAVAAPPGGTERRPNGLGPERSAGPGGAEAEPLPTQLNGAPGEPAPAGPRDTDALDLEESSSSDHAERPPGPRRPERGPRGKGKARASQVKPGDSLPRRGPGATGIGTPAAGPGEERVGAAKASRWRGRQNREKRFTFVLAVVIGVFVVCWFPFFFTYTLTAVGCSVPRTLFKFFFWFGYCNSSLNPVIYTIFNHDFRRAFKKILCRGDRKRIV
Description: PDSP Primary Binding target: ADRA2A - Compounds are tested at 10 uM concentration, plate are incubated at room temperature in the dark for 90 minutes. Reaction are stopped by vacuum filtration onto 0.3% polyethyleneimine soaked filter mats using Filtermate harvester. Scintilation cocktail is then melted onto microwave-dried filters on a hot plate and the radio activity is counted in Microbia counter.

[9] = target: 5-hydroxytryptamine receptor 5A (Homo sapiens) (UniProt P47898)
Description: PDSP Primary Binding target: HTR5A - Compounds are tested at 10 uM concentration, plate are incubated at room temperature in the dark for 90 minutes. Reaction are stopped by vacuum filtration onto 0.3% polyethyleneimine soaked filter mats using Filtermate harvester. Scintilation cocktail is then melted onto microwave-dried filters on a hot plate and the radio activity is counted in Microbia counter.

[10] = target: 5-hydroxytryptamine receptor 1E (Homo sapiens) (UniProt P28566)
Description: PDSP Primary Binding target: HTR1E - Compounds are tested at 10 uM concentration, plate are incubated at room temperature in the dark for 90 minutes. Reaction are stopped by vacuum filtration onto 0.3% polyethyleneimine soaked filter mats using Filtermate harvester. Scintilation cocktail is then melted onto microwave-dried filters on a hot plate and the radio activity is counted in Microbia counter.

[11] = target: Sigma intracellular receptor 2 (Homo sapiens) (UniProt Q5BJF2)
Description: PDSP Primary Binding target: TMEM97 - Compounds are tested at 10 uM concentration, plate are incubated at room temperature in the dark for 90 minutes. Reaction are stopped by vacuum filtration onto 0.3% polyethyleneimine soaked filter mats using Filtermate harvester. Scintilation cocktail is then melted onto microwave-dried filters on a hot plate and the radio activity is counted in Microbia counter.

[12] = target: T5, D(4) dopamine receptor (Homo sapiens) (UniProt P21917)
T5 sequence (whole entry): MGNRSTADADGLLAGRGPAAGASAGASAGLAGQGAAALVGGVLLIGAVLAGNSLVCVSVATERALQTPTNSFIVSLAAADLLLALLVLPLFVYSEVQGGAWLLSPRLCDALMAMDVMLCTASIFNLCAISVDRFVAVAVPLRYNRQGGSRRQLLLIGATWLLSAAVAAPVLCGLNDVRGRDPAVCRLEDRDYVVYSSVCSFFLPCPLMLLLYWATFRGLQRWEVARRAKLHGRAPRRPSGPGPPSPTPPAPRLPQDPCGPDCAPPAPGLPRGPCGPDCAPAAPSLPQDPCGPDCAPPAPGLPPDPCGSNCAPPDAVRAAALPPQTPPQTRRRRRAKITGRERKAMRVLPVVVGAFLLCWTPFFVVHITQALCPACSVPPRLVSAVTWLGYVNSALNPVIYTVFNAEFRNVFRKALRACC
Description: PDSP Primary Binding target: DRD4 - Compounds are tested at 10 uM concentration, plate are incubated at room temperature in the dark for 90 minutes. Reaction are stopped by vacuum filtration onto 0.3% polyethyleneimine soaked filter mats using Filtermate harvester. Scintilation cocktail is then melted onto microwave-dried filters on a hot plate and the radio activity is counted in Microbia counter.

[13] = target: Beta-2 adrenergic receptor (Homo sapiens) (UniProt P07550)
Beta-2 adrenergic receptor (Homo sapiens), sequence (P07550 whole entry, looked up): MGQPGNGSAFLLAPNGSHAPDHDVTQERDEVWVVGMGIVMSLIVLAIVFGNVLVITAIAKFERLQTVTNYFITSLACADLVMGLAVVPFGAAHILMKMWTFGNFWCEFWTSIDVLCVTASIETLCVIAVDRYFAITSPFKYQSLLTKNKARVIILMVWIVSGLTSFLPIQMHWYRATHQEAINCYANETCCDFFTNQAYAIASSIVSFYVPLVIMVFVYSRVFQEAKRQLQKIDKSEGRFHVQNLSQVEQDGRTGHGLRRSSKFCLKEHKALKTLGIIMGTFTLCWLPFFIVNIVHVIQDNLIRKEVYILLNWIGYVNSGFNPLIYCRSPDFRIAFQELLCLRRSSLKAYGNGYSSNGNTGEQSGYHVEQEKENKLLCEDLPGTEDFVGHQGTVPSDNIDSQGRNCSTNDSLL
Description: PDSP Primary Binding target: ADRB2 - Compounds are tested at 10 uM concentration, plate are incubated at room temperature in the dark for 90 minutes. Reaction are stopped by vacuum filtration onto 0.3% polyethyleneimine soaked filter mats using Filtermate harvester. Scintilation cocktail is then melted onto microwave-dried filters on a hot plate and the radio activity is counted in Microbia counter.

Muscarinic acetylcholine receptor M3 (Homo sapiens), sequence (P20309 whole entry, looked up): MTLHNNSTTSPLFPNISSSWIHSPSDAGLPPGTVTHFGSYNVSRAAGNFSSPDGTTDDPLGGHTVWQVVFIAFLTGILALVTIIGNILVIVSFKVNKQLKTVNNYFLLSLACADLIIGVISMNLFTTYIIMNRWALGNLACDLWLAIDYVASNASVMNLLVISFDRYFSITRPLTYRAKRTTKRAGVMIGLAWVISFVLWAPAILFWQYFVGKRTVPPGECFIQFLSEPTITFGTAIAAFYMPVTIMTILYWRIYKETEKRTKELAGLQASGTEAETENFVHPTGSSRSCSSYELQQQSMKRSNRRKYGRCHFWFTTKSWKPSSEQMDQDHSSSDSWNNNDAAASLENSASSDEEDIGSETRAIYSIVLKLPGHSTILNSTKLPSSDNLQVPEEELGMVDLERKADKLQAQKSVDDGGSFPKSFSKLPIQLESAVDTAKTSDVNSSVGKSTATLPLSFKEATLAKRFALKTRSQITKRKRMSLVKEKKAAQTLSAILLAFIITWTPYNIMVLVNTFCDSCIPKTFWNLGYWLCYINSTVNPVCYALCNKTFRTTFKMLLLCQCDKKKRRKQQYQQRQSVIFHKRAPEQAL
5-hydroxytryptamine receptor 1E (Homo sapiens), sequence (P28566 whole entry): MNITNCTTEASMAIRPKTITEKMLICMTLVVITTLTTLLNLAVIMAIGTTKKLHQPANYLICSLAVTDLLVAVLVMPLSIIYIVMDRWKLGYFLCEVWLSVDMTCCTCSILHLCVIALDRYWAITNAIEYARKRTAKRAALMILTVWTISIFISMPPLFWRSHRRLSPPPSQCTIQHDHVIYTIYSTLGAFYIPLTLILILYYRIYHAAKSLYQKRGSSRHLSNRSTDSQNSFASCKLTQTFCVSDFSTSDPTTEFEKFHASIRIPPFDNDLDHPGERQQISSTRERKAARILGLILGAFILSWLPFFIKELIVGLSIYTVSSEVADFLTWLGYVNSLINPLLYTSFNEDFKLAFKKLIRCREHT
Sigma intracellular receptor 2 (Homo sapiens), sequence (Q5BJF2 whole entry): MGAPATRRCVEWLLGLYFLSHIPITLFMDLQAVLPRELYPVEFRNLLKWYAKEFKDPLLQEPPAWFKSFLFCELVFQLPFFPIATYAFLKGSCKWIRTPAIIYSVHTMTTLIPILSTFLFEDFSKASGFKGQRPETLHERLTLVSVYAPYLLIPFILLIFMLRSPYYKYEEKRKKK
5-hydroxytryptamine receptor 5A (Homo sapiens), sequence (P47898 whole entry): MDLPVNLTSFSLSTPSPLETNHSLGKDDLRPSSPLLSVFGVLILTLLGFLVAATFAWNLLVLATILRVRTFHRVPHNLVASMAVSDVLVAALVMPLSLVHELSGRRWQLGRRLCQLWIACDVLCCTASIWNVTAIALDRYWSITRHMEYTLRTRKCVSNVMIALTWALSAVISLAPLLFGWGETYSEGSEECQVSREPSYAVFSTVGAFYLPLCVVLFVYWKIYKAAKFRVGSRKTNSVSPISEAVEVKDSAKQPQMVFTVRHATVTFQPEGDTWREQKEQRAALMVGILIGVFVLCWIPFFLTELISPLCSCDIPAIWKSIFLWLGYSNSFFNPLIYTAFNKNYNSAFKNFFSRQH
Sodium-dependent serotonin transporter (Homo sapiens), sequence (P31645 whole entry, looked up): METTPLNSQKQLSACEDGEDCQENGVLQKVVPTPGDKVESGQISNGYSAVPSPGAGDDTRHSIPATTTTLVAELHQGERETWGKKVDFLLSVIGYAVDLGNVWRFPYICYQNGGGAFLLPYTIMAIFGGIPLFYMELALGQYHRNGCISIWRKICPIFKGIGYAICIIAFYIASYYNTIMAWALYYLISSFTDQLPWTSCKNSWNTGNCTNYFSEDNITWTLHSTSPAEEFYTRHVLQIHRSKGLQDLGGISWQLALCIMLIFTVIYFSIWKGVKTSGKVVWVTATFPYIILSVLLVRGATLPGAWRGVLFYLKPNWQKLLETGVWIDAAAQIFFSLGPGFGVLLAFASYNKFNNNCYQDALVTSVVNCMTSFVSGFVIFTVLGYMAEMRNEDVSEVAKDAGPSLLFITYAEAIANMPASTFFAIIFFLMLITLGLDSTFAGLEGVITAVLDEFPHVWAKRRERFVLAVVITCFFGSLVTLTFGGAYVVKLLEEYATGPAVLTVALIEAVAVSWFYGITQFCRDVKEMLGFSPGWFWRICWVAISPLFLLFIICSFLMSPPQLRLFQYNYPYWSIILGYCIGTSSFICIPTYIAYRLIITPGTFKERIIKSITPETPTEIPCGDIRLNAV
5-hydroxytryptamine receptor 2B (Homo sapiens), sequence (P41595 whole entry): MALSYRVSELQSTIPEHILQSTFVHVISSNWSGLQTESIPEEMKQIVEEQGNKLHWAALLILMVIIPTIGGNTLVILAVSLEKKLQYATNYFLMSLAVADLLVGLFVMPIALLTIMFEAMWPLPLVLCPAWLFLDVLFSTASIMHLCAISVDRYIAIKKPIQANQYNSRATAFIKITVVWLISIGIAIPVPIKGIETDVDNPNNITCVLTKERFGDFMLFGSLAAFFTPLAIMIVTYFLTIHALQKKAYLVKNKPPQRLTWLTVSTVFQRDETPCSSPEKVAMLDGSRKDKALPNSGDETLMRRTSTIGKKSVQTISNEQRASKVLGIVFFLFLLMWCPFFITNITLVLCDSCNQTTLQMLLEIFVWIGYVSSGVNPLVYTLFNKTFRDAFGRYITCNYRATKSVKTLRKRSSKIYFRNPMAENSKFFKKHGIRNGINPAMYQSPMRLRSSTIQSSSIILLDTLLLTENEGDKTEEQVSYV
5-hydroxytryptamine receptor 1B (Homo sapiens), sequence (P28222 whole entry): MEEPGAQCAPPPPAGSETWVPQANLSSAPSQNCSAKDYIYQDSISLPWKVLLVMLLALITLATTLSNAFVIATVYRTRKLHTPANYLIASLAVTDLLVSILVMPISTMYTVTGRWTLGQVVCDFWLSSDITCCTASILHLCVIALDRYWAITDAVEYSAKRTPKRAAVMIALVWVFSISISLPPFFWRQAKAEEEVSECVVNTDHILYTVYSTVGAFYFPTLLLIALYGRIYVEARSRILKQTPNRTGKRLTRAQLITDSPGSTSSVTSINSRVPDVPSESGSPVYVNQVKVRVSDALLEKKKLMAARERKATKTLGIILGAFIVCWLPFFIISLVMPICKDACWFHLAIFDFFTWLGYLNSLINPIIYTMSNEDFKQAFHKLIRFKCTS

Structure (SMILES)	inhibition [1] [%]	inhibition [2] [%]	inhibition [3] [%]	inhibition [4] [%]	inhibition [5] [%]	inhibition [6] [%]	inhibition [7] [%]	inhibition [8] [%]	inhibition [9] [%]	inhibition [10] [%]	inhibition [11] [%]	inhibition [12] [%]	inhibition [13] [%]
OCc1cc(C(O)CNCCCCCCOCCCCc2ccccc2)ccc1O (configuration not stated)	-8.98	19.1	90.4	45.6	51.1	3.27	91.4	58	9.07	17.4	102	57.4	–
FC(F)(F)c1c(N2CCC(c3ccccc3)CC2)ccn2c(CC3CC3)nnc12	-8.34	-1.64	-9.2	1.28	-8.94	7.85	42.4	–	–	21.9	22.9	–	-5.09
CN[C@@H]1CCc2[nH]c3ccc(C(N)=O)cc3c2C1	15.7	–	6.12	–	88.2	10.5	7.67	31	9.03	79.1	54.9	64.7	22.7
c1cc(CN2CCCNCCNCCCNCC2)ccc1CN1CCCNCCNCCCNCC1	-4.94	62.3	–	66.3	4.06	67.7	22.7	7.87	–	33.9	22.5	–	-4.45
CCC[C@H](Oc1cc(C)c(-n2cc(C(F)(F)F)cn2)c(C)c1)c1ccc(C(=O)NCCC(=O)O)cc1	-0.42	28	–	5.06	12.2	-6.26	-5.66	–	8.62	44	2.23	-1.34	–
Cc1ccc(O)c([C@H](CCN(C(C)C)C(C)C)c2ccccc2)c1	99.8	99.2	32.5	14.9	25.3	97.6	20.8	20.2	–	–	96.9	35.3	19.5
O=C(O)C1CN(Cc2ccc(OCc3ccc(Cl)c(Cl)c3)cc2)C1	-5.25	2.35	10.2	10	–	-5.07	-9.84	29.7	23.4	-4	–	-0.79	–
COc1ccc(CNC(=O)c2cc(-c3cncc(Cl)c3)cnc2-c2ccccn2)nc1OC	-0.37	-7.31	-6.96	7.09	-4.47	10.6	23.7	–	–	12.9	16.4	-1.86	-9.92
CO[C@@H]1COCC[C@@H]1N[C@@H]1CC[C@@](C(=O)N2CCc3ncc(C(F)(F)F)cc3C2)(C(C)C)C1	6.08	-6.06	-6.19	3.2	-6.23	8.25	-2.04	–	–	9.5	67.9	-3.53	-6.91
COc1ccccc1N1CCN(CCCCNC(=O)c2ccc3ccccc3c2)CC1	3.09	–	97	111	93.2	7.22	83.7	100	76.4	27.8	96.4	95.1	38.9
CNc1nc(NCc2ccc(NS(C)(=O)=O)cc2Cl)cc(-c2ccccn2)n1	-1.96	9.22	66.5	50.4	3.99	-5.61	42.1	43.2	75.4	-3.24	39.1	2.1	–
O=C(O)CC1CCC2(CC1)CCN(c1cc(OC(F)(F)F)ccc1Cl)CC2	-5.1	-1.08	–	0.13	-0.21	27.1	29.8	–	–	16.8	-1.25	–	0.58
O=C(O)C1CN(Cc2ccc(-c3nc4cc(Cc5ccccc5F)ccc4s3)c(F)c2)C1	-1.67	0.63	-9.46	20.6	–	-8.59	-1.28	–	7.19	31.1	19.1	-6.1	66.8
NCCc1c[nH]c2ccc(C(N)=O)cc12	3.95	–	78.8	15.4	101	7.09	49.3	69.8	99.4	65.6	63.4	8.02	4.33
Cc1cc([C@@H](C)Nc2cccc(-c3cc(C)c(C(=O)N[C@@H](C)C(=O)O)c(C)c3)c2)ccc1Cl	-4.86	21.2	54.5	-1.32	12.1	2.88	-8.16	–	11.6	5.92	–	31.4	–
